Publication PMC12566593, “Effects of Different Centrifugation Parameters on Equilibrium Solubility Measurements” (Methods and Protocols, 2025)
Where a name gives a salt, the structure may show the parent alone. Read-outs that look alike come from different tables or passages of the source.

Experiments:
[1] = Equilibrium solubility, saturation shake-flask, centrifugation as phase separation; details: for solubility thermodynamic / solubility thermodynamic at 24 h: Britton-Robinson buffer; for solubility thermodynamic: sedimented before centrifugation; for solubility thermodynamic at 24 h: continuously stirred, no sedimentation; for Centrifugation: Result Range: % of reference, all centrifugation protocols
Method: To determine equilibrium solubility, the samples were added to Britton-Robinson buffer solutions (BRB) adjusted to specific pH values, obtaining a heterogenous system (Table S2). BR buffers were used in the experiments across a pH range of 2.0 to 11.0, prepared by combining 0.04 M acetic acid, 0.04 M phosphoric acid, and 0.04 M boric acid. The mixture was then titrated with varying amounts of 0.2 M NaOH to achieve the desired pH values. The ionic strength was kept constant (I = 0.15) across all pH values using appropriate amounts of inert KCl. […] The exception was progesterone, a neutral molecule, for which only a single pH condition was necessary. […] This strategy enabled a more comprehensive assessment of how centrifugation parameters influence solubility. Different amounts of 0.2 M NaOH were used to adjust the pH of the buffer to the desired values, between pH 2.0 and 11.0.
(§1) Samples were stirred using the μDISS Profiler™ (Pion Inc., Billerica, MA, USA) at 150 rpm [33], the pH was checked after 1 h and adjusted, if necessary, with either 0.1 M HCl or 0.1 M NaOH. To confirm the reliability of the results, the pH was measured again at the end of each experiment. Prior to centrifugation, two different approaches were applied: stirring samples for 6 h, followed by 18 h of sedimentation, according to the standardized protocol [18], or continuously stirring samples for 24 h, without a subsequent sedimentation step.
From each sample, aliquots of 10 mL were transferred into centrifugation tubes and centrifuged using a Sartorius 2–16P type centrifuge.
(§2) After centrifugation, the concentration was measured by the μDISS Profiler™ (Pion Inc., Billerica, MA, USA) equipped with UV probes. The aliquots were diluted with the buffer solution if necessary. The 2nd derivative method was utilized in the AuPRO™ 7.1 software (Pion Inc., Billerica, MA, USA) to determine the concentration of the samples after a calibration was conducted for each substance. Calibration was performed by adding small volumes of methanolic stock solutions with known concentrations to buffer solutions of defined pH. Separate calibration curves were prepared for each UV probe.
At least three parallel measurements were carried out for each compound with each combination of variables (Table S1). Equilibrium solubility measurements using centrifugation were compared to those obtained by using only sedimentation.

[2] = Ionization state calculated from pKa and buffer pH; assay type: physicochemical; details: pH 6.4
From the text: Depending on the pH, the molecule exists as the neutral acid (H2A), monoanion (HA^−), or dianion (A^2−). […] These values were derived from the mole fraction (x) of the various species, based on the compound’s known pKa values and the corresponding buffer pH (Equations (3)–(6)).

[3] = cited from earlier work; for Filtration: Result Range: % of reference, all filters
[4] = Equilibrium solubility, saturation shake-flask, sedimentation as phase separation (reference, standard protocol); details: for solubility: Britton-Robinson buffer
From the text: BR buffers were used in the experiments across a pH range of 2.0 to 11.0, prepared by combining 0.04 M acetic acid, 0.04 M phosphoric acid, and 0.04 M boric acid. The mixture was then titrated with varying amounts of 0.2 M NaOH to achieve the desired pH values. The ionic strength was kept constant (I = 0.15) across all pH values using appropriate amounts of inert KCl. […] Different amounts of 0.2 M NaOH were used to adjust the pH of the buffer to the desired values, between pH 2.0 and 11.0.
as §1, §2
At least three parallel measurements were carried out for each compound with each combination of variables (Table S1).

## COc1ccc(Cc2nccc3cc(OC)c(OC)cc23)cc1OC [PAP-HCL, papaverine hydrochloride]
[1]; 10,000 rpm for 20 min without prior sedimentation
  Solubility higher than the reference: 60–70%
[1]; 25 °C, pH 3, aqueous buffer, thermodynamic from solid, Equilibrium solubility S sed, pH 3.0, 5000 rpm, 5 min
  solubility thermodynamic: 37200 µg/mL
[1]; 25 °C, pH 3, aqueous buffer, thermodynamic from solid, Equilibrium solubility S sed, pH 3.0, 5000 rpm, 10 min
  solubility thermodynamic: 38000 µg/mL
[1]; 25 °C, pH 3, aqueous buffer, thermodynamic from solid, Equilibrium solubility S sed, pH 3.0, 5000 rpm, 20 min
  solubility thermodynamic: 37100 µg/mL
[1]; 25 °C, pH 3, aqueous buffer, thermodynamic from solid, Equilibrium solubility S sed, pH 3.0, 10,000 rpm, 5 min
  solubility thermodynamic: 39500 µg/mL
[1]; 25 °C, pH 3, aqueous buffer, thermodynamic from solid, Equilibrium solubility S sed, pH 3.0, 10,000 rpm, 10 min
  solubility thermodynamic: 40900 µg/mL
[1]; 25 °C, pH 3, aqueous buffer, thermodynamic from solid, Equilibrium solubility S sed, pH 3.0, 10,000 rpm, 20 min
  solubility thermodynamic: 39500 µg/mL
[1]; 25 °C, pH 3, aqueous buffer, thermodynamic from solid, Equilibrium solubility S stir, pH 3.0, 5000 rpm, 5 min
  solubility thermodynamic at 24 h: 36800 µg/mL
[1]; 25 °C, pH 3, aqueous buffer, thermodynamic from solid, Equilibrium solubility S stir, pH 3.0, 5000 rpm, 10 min
  solubility thermodynamic at 24 h: 41100 µg/mL
[1]; 25 °C, pH 3, aqueous buffer, thermodynamic from solid, Equilibrium solubility S stir, pH 3.0, 5000 rpm, 20 min
  solubility thermodynamic at 24 h: 38400 µg/mL
[1]; 25 °C, pH 3, aqueous buffer, thermodynamic from solid, Equilibrium solubility S stir, pH 3.0, 10,000 rpm, 5 min
  solubility thermodynamic at 24 h: 39100 µg/mL
[1]; 25 °C, pH 3, aqueous buffer, thermodynamic from solid, Equilibrium solubility S stir, pH 3.0, 10,000 rpm, 10 min
  solubility thermodynamic at 24 h: 40400 µg/mL
[1]; 25 °C, pH 3, aqueous buffer, thermodynamic from solid, Equilibrium solubility S stir, pH 3.0, 10,000 rpm, 20 min
  solubility thermodynamic at 24 h: 39300 µg/mL
[1]; 25 °C, pH 6.4, aqueous buffer, thermodynamic from solid, Equilibrium solubility S sed, pH 6.4, 5000 rpm, 5 min
  solubility thermodynamic: 24.4 ± 0.48 µg/mL
[1]; 25 °C, pH 6.4, aqueous buffer, thermodynamic from solid, Equilibrium solubility S sed, pH 6.4, 5000 rpm, 10 min
  solubility thermodynamic: 28.2 ± 0.78 µg/mL
[1]; 25 °C, pH 6.4, aqueous buffer, thermodynamic from solid, Equilibrium solubility S sed, pH 6.4, 5000 rpm, 20 min
  solubility thermodynamic: 28.2 ± 0.73 µg/mL
[1]; 25 °C, pH 6.4, aqueous buffer, thermodynamic from solid, Equilibrium solubility S sed, pH 6.4, 10,000 rpm, 5 min
  solubility thermodynamic: 24.4 ± 1.17 µg/mL
[1]; 25 °C, pH 6.4, aqueous buffer, thermodynamic from solid, Equilibrium solubility S sed, pH 6.4, 10,000 rpm, 10 min
  solubility thermodynamic: 32.8 ± 0.81 µg/mL
[1]; 25 °C, pH 6.4, aqueous buffer, thermodynamic from solid, Equilibrium solubility S sed, pH 6.4, 10,000 rpm, 20 min
  solubility thermodynamic: 31.2 ± 1.08 µg/mL
[1]; 25 °C, pH 6.4, aqueous buffer, thermodynamic from solid, Equilibrium solubility S stir, pH 6.4, 5000 rpm, 5 min
  solubility thermodynamic at 24 h: 33 ± 2.11 µg/mL
[1]; 25 °C, pH 6.4, aqueous buffer, thermodynamic from solid, Equilibrium solubility S stir, pH 6.4, 5000 rpm, 10 min
  solubility thermodynamic at 24 h: 32.3 ± 1.54 µg/mL
[1]; 25 °C, pH 6.4, aqueous buffer, thermodynamic from solid, Equilibrium solubility S stir, pH 6.4, 5000 rpm, 20 min
  solubility thermodynamic at 24 h: 32.9 ± 1.26 µg/mL
[1]; 25 °C, pH 6.4, aqueous buffer, thermodynamic from solid, Equilibrium solubility S stir, pH 6.4, 10,000 rpm, 5 min
  solubility thermodynamic at 24 h: 28.6 ± 1.55 µg/mL
[1]; 25 °C, pH 6.4, aqueous buffer, thermodynamic from solid, Equilibrium solubility S stir, pH 6.4, 10,000 rpm, 10 min
  solubility thermodynamic at 24 h: 37.8 ± 2.07 µg/mL
[1]; 25 °C, pH 6.4, aqueous buffer, thermodynamic from solid, Equilibrium solubility S stir, pH 6.4, 10,000 rpm, 20 min
  solubility thermodynamic at 24 h: 39.1 ± 1.34 µg/mL
[1]; 25 °C, pH 10, aqueous buffer, thermodynamic from solid, Equilibrium solubility S sed, pH 10.0, 5000 rpm, 10 min
  solubility thermodynamic: 14.3 ± 0.17 µg/mL
[1]; 25 °C, pH 10, aqueous buffer, thermodynamic from solid, Equilibrium solubility S sed, pH 10.0, 10,000 rpm, 5 min
  solubility thermodynamic: 16.3 ± 0.57 µg/mL
[1]; 25 °C, pH 10, aqueous buffer, thermodynamic from solid, Equilibrium solubility S sed, pH 10.0, 10,000 rpm, 10 min
  solubility thermodynamic: 17.5 ± 0.18 µg/mL
[1]; 25 °C, pH 10, aqueous buffer, thermodynamic from solid, Equilibrium solubility S sed, pH 10.0, 10,000 rpm, 20 min
  solubility thermodynamic: 18.7 ± 2.41 µg/mL
[1]; 25 °C, pH 10, aqueous buffer, thermodynamic from solid, Equilibrium solubility S stir, pH 10.0, 5000 rpm, 5 min
  solubility thermodynamic at 24 h: 18.4 ± 0.28 µg/mL
[1]; 25 °C, pH 10, aqueous buffer, thermodynamic from solid, Equilibrium solubility S stir, pH 10.0, 10,000 rpm, 10 min
  solubility thermodynamic at 24 h: 18.2 ± 1.12 µg/mL
[1]; 25 °C, pH 10, aqueous buffer, thermodynamic from solid, Equilibrium solubility S stir, pH 10.0, 10,000 rpm, 20 min
  solubility thermodynamic at 24 h: 28.7 ± 0.7 µg/mL
[1]; pH 10, Equilibrium solubility S sed, pH 10.0, 5000 rpm, 5 min
  solubility thermodynamic: 17 ± 0.86 µg/mL
[1]; pH 10, Equilibrium solubility S sed, pH 10.0, 5000 rpm, 20 min
  solubility thermodynamic: 14.4 ± 0.38 µg/mL
[1]; pH 10, Equilibrium solubility S stir, pH 10.0, 5000 rpm, 10 min
  solubility thermodynamic at 24 h: 13.3 ± 0.2 µg/mL
[1]; pH 10, Equilibrium solubility S stir, pH 10.0, 5000 rpm, 20 min
  solubility thermodynamic at 24 h: 16.9 ± 0.79 µg/mL
[1]; pH 10, Equilibrium solubility S stir, pH 10.0, 10,000 rpm, 5 min
  solubility thermodynamic at 24 h: 17.8 ± 0.5 µg/mL
[1]; pH 3.0
  Centrifugation: Closest to Reference (100%): 100%
  Centrifugation: Result Range: 91–102%
[1]; pH 6.4
  Centrifugation: Closest to Reference (100%): 101%
  Centrifugation: Result Range: 101–162%
[1]; pH 10.0
  Centrifugation: Closest to Reference (100%): 100%
  Centrifugation: Result Range: 78–170%
[1]; pH 10.0, higher centrifugation speed, 20 min of centrifugation
  Solubility compared to the other samples: nearly doubled
[2]
  Fraction ionized: 50%
[3]; pH 3.0
  Filtration: Result Range: 85–95%
  Filtration: Closest to Reference (100%): 95%
[3]; pH 6.4
  Filtration: Result Range: 42–106%
  Filtration: Closest to Reference (100%): 95%
[3]; pH 10.0
  Filtration: Result Range: 62–95%
  Filtration: Closest to Reference (100%): 95%
[4]; 25 °C, pH 3, aqueous buffer, thermodynamic from solid, Solubility (reference), pH 3.0, 6 h stirring, 18 h sedimentation
  solubility: 40400 µg/mL
[4]; 25 °C, pH 6.4, aqueous buffer, thermodynamic from solid, Solubility (reference), pH 6.4, 6 h stirring, 18 h sedimentation
  solubility: 24.2 ± 1.1 µg/mL
[4]; pH 10, Solubility (reference), pH 10.0, 6 h stirring, 18 h sedimentation, 25 °C
  solubility: ~17 µg/mL
[4]; fully ionized vs neutral form
  Solubility at pH 3.0 relative to pH 10.0: around 2350 times
[4]; pH 10.0, 6 h stirring, 18 h sedimentation, 25 °C
  Solubility (reference): 16.9 ± 1.7 µg/mL
